PMC11750938, “Self-sufficient biocatalytic cascade for the continuous synthesis of danshensu in flow” (Applied Microbiology and Biotechnology, 2025)

Biological target: T1, MpHPPR (hydroxyphenylpyruvate reductase from Mentha x piperita) (Mentha x piperita, UniProt A0A2R4SEK0)
T1 construct: codon-optimised synthetic gene in pET15b, N-terminal His-tag, expressed in E. coli BL21(DE3) Star, Ni-NTA purified, dimer
T1 sequence (A0A2R4SEK0 1-313): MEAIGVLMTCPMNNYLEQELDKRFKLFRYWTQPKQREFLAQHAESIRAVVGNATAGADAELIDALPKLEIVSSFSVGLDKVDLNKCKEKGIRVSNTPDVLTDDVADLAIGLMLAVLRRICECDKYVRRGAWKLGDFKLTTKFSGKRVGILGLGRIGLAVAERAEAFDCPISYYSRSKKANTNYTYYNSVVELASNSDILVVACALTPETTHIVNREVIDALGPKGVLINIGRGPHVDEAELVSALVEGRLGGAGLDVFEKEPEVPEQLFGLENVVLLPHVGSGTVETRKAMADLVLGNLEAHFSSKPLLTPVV
Test: HPLC product quantification
Format: biochemical
Details: pH 7.0, 100 mM potassium phosphate, 37 °C, 10 mM NAD(P)H, 5 mM ß-mercaptoethanol

Row | SMILES | KM
1 | O=C(O)C(=O)Cc1ccccc1 [PPA, phenylpyruvic acid] | Specific activity and KM for phenylpyruvic acid (PPA)
2 | O=C(O)C(=O)Cc1ccc(O)cc1 [HPPA, 3-(4-Hydroxyphenyl)−2-oxopropanoic acid] | Specific activity and KM for phenylpyruvic acid (PPA), 4-hydroxyphenylpyruvic acid (HPPA)
